Measured values as given in ChEMBL document CHEMBL3507680, “University of Dundee, Gates Library screen for HepG2 cell viability”.

Assay: Human HepG2 cell viability assay in 384 well format
Format: toxicity, cell-based
Set-up: dose 125 nL, time 70.5 hour; concentration not given beside the values
Conditions: HepG2 cells, read-out: Inhibition

Structure (SMILES)	cytotoxicity at 70.5 h [%]
COc1ccc(CNC(=O)NC2CCN(C)CC2)c(C(F)(F)F)c1	2.4
CC(CN1CCCC1=O)NC(=O)c1cc(Cl)c2c(c1)OCO2 (stereo not drawn)	7.24
CCN(C(=O)c1cnc(-c2ccc3c(c2)OCO3)s1)C1CC1	12.4
Cc1cccc(S(=O)(=O)NC(=O)CCc2cscn2)c1	4.67
CSc1ccc(NC(=O)NCC2CCCO2)cc1F (stereo not drawn)	11.2
Cc1ccc(S(=O)(=O)NC(=O)CCc2cscn2)cc1Cl	25.6
Cc1ccc(C(=O)N2CCCC(n3cncn3)C2)o1 (stereo not drawn)	1.71
CC(C)c1cnc(CN(C)C2CCN(CCS(C)(=O)=O)C2)o1 (stereo not drawn)	2.71
Cc1nn(C)c(N2CCOCC2)c1CNC(C)c1ccccn1 (stereo not drawn)	5.82
Cc1nc(CN(C)C2CCN(Cc3nc(C4CC4)no3)C2)no1 (stereo not drawn)	-1.35
CCCc1n[nH]c(C2CN(C(=O)CCn3nc(C)cc3C)CCO2)n1 (stereo not drawn)	0.729
CCCC(=O)NCC(=O)NC(c1ccc(Cl)cc1)C(F)(F)F (stereo not drawn)	8.36
C/C(=C/c1ccccc1)CNCc1cccc(C(N)=O)c1	-10.9
Cc1nc(CNC(=O)CCN2CCN(c3ccccn3)CC2)oc1C	6.4
Cc1nc(CNC(=O)CCN2CCN(c3ccccc3)CC2)oc1C	2.07
CS(=O)(=O)CCNC(=O)N(Cc1ccoc1)C1CCCCC1	-7.65
COc1ccc(OCC(=O)NS(=O)(=O)c2ccc(Cl)s2)cc1	-8.59
O=C(NCC1(c2cccc(F)c2)CC1)N1CCC2(CCOC2)C1 (stereo not drawn)	-7.28
Cc1nc(CNc2ccc(C(=O)NCc3ccco3)cc2C)no1	-11.5
N#CCc1ccc(OCC(=O)NS(=O)(=O)c2ccc(Cl)s2)cc1	-7.69
Cc1ncc(CNc2ccc(C(=O)NCc3ccco3)cc2C)s1	1.95
O=C(Nc1ccc2c(c1)OC1(CCCC1)O2)c1ccc(=O)[nH]n1	-6.98
O=C(NCCN1CCOCC1)N(Cc1ccoc1)C1CCCCC1	1.39
CCNC(=O)N(Cc1ccoc1)C1CCCCC1	-5.6

Structure (SMILES)	cytotoxicity at 70.5 h [%]
O=C(NCCCNc1ccccn1)NCC1CCS(=O)(=O)C1 (stereo not drawn)	-8.26
CCN(CCNCc1ccc(C#N)cc1)C1CC1	-6.58
CC(=O)N(Cc1ccoc1)C1CCCCC1	-5.21
CN(CCN1CCCC1=O)CC(c1cccs1)N1CCOCC1 (stereo not drawn)	-11.7
CC(CO)(NCc1noc(Cc2ccccc2)n1)C1CCCCC1 (stereo not drawn)	-0.885
COCCOc1ccc(CNc2nc3ccccc3o2)cn1	-10.8
Cc1ccc(-c2nc(CSCCC(=O)NC(N)=O)co2)c(C)c1	22
Cc1ccc(S(=O)(=O)NC(=O)C2(c3ccc(F)cc3)CCC2)c(C)c1	26.9
CS(=O)(=O)CCC(=O)N(CCc1cccc(F)c1)C1CC1	-11.4
Cn1c2ncccc2c(=O)n1CC(=O)NCCC1=CCCCC1	-2.08
O=C(NC1CCCN(c2ccccc2Cl)C1)c1c[nH]nn1 (stereo not drawn)	-10.1
O=C(NC1CCCN(c2ccccc2Cl)C1)c1nc(=O)[nH][nH]1 (stereo not drawn)	25.3
CSc1ccc(OCCN2CCC(n3cncn3)CC2)cc1	-13.7
N#Cc1ccsc1N1CCC(Sc2ncc[nH]2)C1=O (stereo not drawn)	-7.58
COc1cc2c(c(OC)c1OC)CCN(CCN1CCCCC1)CC2	-10.5
Cc1cc(=O)[nH]cc1C(=O)N1CCN(C)c2ccccc2C1	-0.391
CC(C)(CO)CCCNC(=O)NC1(c2ccccc2F)CC1	3.5
CC(=O)N(Cc1ccc(NCc2cnn(C(C)(C)C)c2)cc1)C(C)C	-3.55
Cc1cc(C(=O)N2CCN(c3ccncc3Cl)CC2)n(C)n1	-1.44
COc1cccc(OCC(=O)N(C)c2cccnc2)c1	24
Cc1cccc(C2CCCN2Cc2nc(N)nc(N(C)C)n2)c1C (stereo not drawn)	-9.17
CSCC1CCN(C(=O)c2ccccc2NCc2cccnc2)C1 (stereo not drawn)	-8.12
Cc1noc(C(C)N2CCc3[nH]c4ccc(Cl)cc4c3C2)n1 (stereo not drawn)	-8.97
CS(=O)(=O)CCN(CCc1cccc(F)c1)C1CC1	-0.807

Structure (SMILES)	cytotoxicity at 70.5 h [%]
COc1cc2c(c(OC)c1OC)CCN(CCn1cncn1)CC2	-8.44
COc1cc2c(c(OC)c1OC)CCN(CCn1nc(C)cc1C)CC2	-6.93
COCCc1noc(CNC(C)(CO)C2CCCCC2)n1 (stereo not drawn)	-0.882
CC(C)OC(=O)NCc1ccc(NCc2cnn(C(C)(C)C)c2)cc1	-13.1
CN(C)C(=O)c1cccn1-c1ccc2c(c1)OCCO2	-2.2
O=C(C(c1ccccc1)N1CCc2cncnc2C1)N1CCCCC1 (stereo not drawn)	7.48
Fc1ccc(-c2cnc(CNC3CCc4ncnn4C3)o2)cc1 (stereo not drawn)	-8.23
CC(Nc1ccn(Cc2ccccn2)n1)C(=O)NC(C)(C)C (stereo not drawn)	-7.21
Fc1ccc(-c2ccc(CNC3CCc4ncnn4C3)o2)cc1 (stereo not drawn)	-9.49
Cn1cnc2c1CCN(C(C(=O)N1CCCCC1)c1ccccc1)C2 (stereo not drawn)	-6.79
CCc1nnsc1C(=O)N1CCN(CC(O)CC)CC1 (stereo not drawn)	-10.3
Cn1nnc2c1CCN(C(C(=O)N1CCCCC1)c1ccccc1)C2 (stereo not drawn)	-7.33
CC(C)Oc1ccc(C(O)CNCc2ccccc2C(F)(F)F)cc1 (stereo not drawn)	-6.08
CCCS(=O)(=O)CC(=O)N1CCN(CC2CC2)c2ccccc21	-7.98
CS(=O)(=O)CCCC(=O)N1CCN(CC2CC2)c2ccccc21	-7.11
CC(C)N(C)CC(=O)NCC(O)c1cc2ccccc2s1 (stereo not drawn)	-7.72
CN(C)S(=O)(=O)NCC(O)c1cc2ccccc2s1 (stereo not drawn)	3.05
CNC(=O)C1CCCN(C(=O)OC)C1 (stereo not drawn)	-5.12
OCC(CO)Nc1ccc2c(Cl)ccc(Cl)c2n1	-1
COCCC(=O)N1CCN(CC2CC2)c2ccccc21	-3.57
O=C(CNC1CCc2ncnn2C1)N(C1=CCCCC1)C1CC1 (stereo not drawn)	-2.56
COc1ccc(N(Cc2ccco2)C(=O)C2CCCO2)cc1F (stereo not drawn)	-2.54
CCCN(C(=O)CNC1CCc2ncnn2C1)C1=CCCCC1 (stereo not drawn)	-10.9
CC(C)c1cc(C(=O)NCC(O)C2CCOCC2)nn1C(C)(C)C (stereo not drawn)	1.71

Structure (SMILES)	cytotoxicity at 70.5 h [%]
COc1cccc(F)c1C(C)NC(=O)NCc1ccnc(C)n1 (stereo not drawn)	26.5
CN(c1ccc(C#N)cn1)C1CCCN(Cc2noc(C3CC3)n2)C1 (stereo not drawn)	-0.287
CC(=O)NCC1CCN(C(=O)c2c[nH]c3cc(Cl)ccc23)CC1	-10.5
Cc1nn(C)c(Cl)c1S(=O)(=O)N(C)c1ccc(Cl)cn1	0.786
Cc1cc(N(C)C)nc(NCCn2cccn2)n1	-10
Cc1cnn(CCNc2nc(C)cc(N(C)C)n2)c1	11.4
CCCN1C(=O)C2(CCCCC2)NC1c1cn(C)c(=O)n(C)c1=O (stereo not drawn)	-6.69
CCSc1cncc(N2CCC(C(=O)Nc3ccccn3)CC2)n1	-3.08
CCSc1cncc(N2CCC(C(=O)NC(C)C(C)C)CC2)n1 (stereo not drawn)	-3.06
CN(Cc1cccs1)C(=O)Cn1cc(NC(=O)C(C)(C)C)cn1	-7.51
CN(CC(F)(F)F)C(=O)Cn1cc(NC(=O)C(C)(C)C)cn1	3.96
COCCC(=O)Nc1cc(CC(C)(C)C)n[nH]1	-6.88
O=C(NCC(O)C1CC1)Nc1cnn(Cc2ccccc2)c1 (stereo not drawn)	-7.29
CC(C)C(O)CNC(=O)Nc1cnn(C(C)C)c1 (stereo not drawn)	-8.43
Cc1cccn2cc(C[S+]([O-])Cc3noc(C(C)C)n3)nc12 (stereo not drawn)	-1.76
COc1ccc(F)c(NCc2ccc(C(=O)N(C)C)[nH]2)c1	15.8
Cc1ccc(CNC(=O)N2CCc3ccccc3C2CO)s1 (stereo not drawn)	-5.32
Cc1ccc(F)c(NCc2ccc(C(=O)N(C)C)[nH]2)c1	-3.46
CCCc1nc(CNc2ccc(F)c(F)c2)no1	14.6
CC(=O)NCC1CCN(C(=O)c2c(C)[nH]c3ccc(Cl)cc23)CC1	-0.185
CCc1nc(CNc2ccc(F)c(F)c2)no1	-7.5
CC(C)N(CC1CCCN(Cc2ccon2)C1)C(=O)OC(C)(C)C (stereo not drawn)	-2.83
N#CCSCCCN1CCC(C(=O)N2CCCCCC2)CC1	-5.04
COc1ccc(C)cc1CC(=O)NC(CC(=O)O)c1ccc(F)cc1 (stereo not drawn)	-18.4

Structure (SMILES)	cytotoxicity at 70.5 h [%]
CNC(=O)C(C)NC(=O)c1ccc(Oc2cccnc2)cc1 (stereo not drawn)	-10.1
O=C(O)CC(NC(=O)c1cc(Br)c[nH]1)c1ccccc1 (stereo not drawn)	-7.36
CC(C)c1noc(CS(=O)(=O)CC(=O)NCc2ccccc2)n1	-9.16
CC(C)CCOc1ccc(C(C)NC(=O)Cn2cccnc2=O)cc1 (stereo not drawn)	-5.94
COc1ccc(CCC(=O)Nc2ccncc2C)cc1	-9.71
Cc1nc(C2CCCN(C(=O)CN3CCCC3=O)C2)sc1C (stereo not drawn)	-15.5
O=C(CN1CCCNC1=O)N1CCCC(c2nccs2)C1 (stereo not drawn)	-8.65
N#Cc1ccc(CNC(=O)NCCC(=O)NC2CCCC2)c(F)c1	-2.28
CNc1nc(CNC(=O)Nc2ccc(OC)cc2C)cs1	-7.81
Cc1cnc2c(c1)N(C(=O)c1ccc(=O)n(C)c1)CCO2	-2.79
O=C(NCCCc1ccc(O)cc1)C1(O)Cc2ccccc2C1	-8.24
CC(C)COC(C)C(=O)NCc1ccc(Cn2ccnc2)cc1 (stereo not drawn)	-8.31
CCS(=O)(=O)NCCCNC(=O)N(C)C(C)c1ccccn1 (stereo not drawn)	-5.57
Cc1cccc(C)c1CCNC(=O)N1CCCC2(C1)OCCO2	-5.85
CC(C)COC(C)C(=O)NCc1ccccc1Cn1ccnc1 (stereo not drawn)	-7
CCC(C)(NCC(=O)Nc1nc(C)cs1)c1nc(C)cs1 (stereo not drawn)	-0.105
COc1cccc(CNCc2nnc3n2CC(C(F)(F)F)CC3)c1 (stereo not drawn)	6.13
O=C(CCn1ccccc1=O)Nc1ccc(I)cc1	-10.5
Cc1ccc(NC(=O)CNc2cccc3c2CCCC3)c(Br)c1	-8.9
O=C(NCc1cc[nH]n1)NCC(c1ccccc1Cl)N1CCCC1 (stereo not drawn)	-14.6
CNC(=O)c1cccc(NC(=O)CN2CCN(S(C)(=O)=O)CC2)c1	-11.3
COC(=O)c1cccc(NC(=O)CN2CCN(S(C)(=O)=O)CC2)c1	-9.51
